Reference: article PMC2904697, “A Screen for Kinetochore-Microtubule Interaction Inhibitors Identifies Novel Antitubulin Compounds” (PLoS ONE, 2010)
pIC50: −log10 of the molar value.

Assays:
[1] = tested on: recombinant CLIP-170^488 binding to taxol-stabilized MTs; assay: CLIP-170^488 binding to taxol-stabilized MTs (specificity control); conditions: compound B at 50 µmol/l
Excerpt: Figure 2 Compound B prevents the recombinant Ndc80 kinetochore complex from binding to taxol-stabilized microtubules. Effect of compound B (50 µmol/l) on binding of the Ndc80^488 complex to rhodamine-labeled, taxol-stabilized MTs as assayed using inverted wide-field fluorescence microscopy. The scale bar represents 4 µm (A). Structure of compound B; 6-furan-2-yl-3-methyl-4-oxo-4,5,6,7-tetrahydro-1H-indole-2-carboxylic acid (tetrahydro-furan-2-yl)methyl ester (B). Measurement of the IC50 value of compound B using total internal reflection fluorescence microscopy. The scale bar represents 4 µm (C). Compound B (50 µmol/l) prevented MT-associating protein CLIP-170^488, used as a specificity control, from binding to taxol-stabilized MTs. The scale bar represents 4 µm (D). […] The scale bar represents 4 µm (E).
A compound inhibiting the Ndc80^488 complex-MT interaction could act either against the complex or against the MTs. To probe the specificity of compound B toward the Ndc80^488 complex, we examined its ability to inhibit MT binding of recombinant CLIP-170^488, a MT plus-end tracking protein.

HeLa cells = assay: Mitotic delay and cell death in G1/S-synchronized HeLa cells (time-lapse videomicroscopy); assay type: cell-based, human
Description: At compound B concentrations of 5 µmol/l and above, the cells arrested robustly in metaphase (∼15 h) and then underwent cell death, as diagnosed by cell shrinkage (Fig. 3B). […] This phenotype is indicative of chromatids being unable to bind to spindle MTs and/or of spindle defects, as observed with nocodazole (Fig. 3C). […] Because drugs that inhibit tubulin polymerization also destabilize MTs, we next probed whether compound B destabilized metaphase spindles. We arrested HeLa cells in metaphase using 10 µmol/l of proteosome inhibitor MG132. […] Thus, compound B prevents tubulin assembly and destabilizes spindle MTs in cells.
Next, we determined whether the elevated antitubulin activities of compounds A6, A8, D7 and E7 (versus compound B), and the discrepancies in activity between the compounds themselves were reflected in their effects on mitosis. G1/S synchronized HeLa cells were released into growth medium containing 100 or 500 nmol/l of these compounds or compound B; the duration of the mitotic delay by the compounds and the percentage of cells undergoing subsequent cell death were scored. […] The four compounds triggered mitotic delays to an extent that directly reflects their activities in vitro (compare Fig. 6E and Fig. 6, panels B to D). […] Of note, each of our compounds acted in cells with an efficacy exceeding those measured in vitro (compare Fig. 6E and Fig. 5). This discrepancy may be due to increased compound:tubulin ratios in cells. Alternatively, the compounds may be modified intracellularly, resulting in enhanced activity. Because compound B and the four second-generation compounds are 6-furan-2-yl-3-methyl-4-oxo-4,5,6,7-tetrahydro-1H-indole-2-carboxylic acid derivatives, we have named these tubulin inhibitors “furan-metoticas”.

[2] = tested on: hTERT RPE-1, HCT-116 and A2780 cell lines; assay: Viability analysis (CellTiter 96 Assay); assay type: cell-based; conditions: Homo sapiens, 72 h, A2780 and HCT-116 cells, 3 d, 1–1000 nmol/l, read-out: IC50 for killing of cells (viability)
Description: RPE, a telomerase-immortalized cell line derived from retinal pigment epithelium, served as the non-cancer control. Antitubulin agents colchicine and nocodazole were used as controls for drug activity. The RPE, A2780, and HCT-116 cells were efficiently killed by compound A8 and the control drugs.
Viability analysis in the presence of antitubulin drugs was performed on hTERT RPE-1 (ATCC), HCT-116 (ATCC), and A2780 (EACC) cell lines. Cell lines were authenticated by PCR [22]. Absence of eight commonly encountered mycoplasma species was confirmed by PCR [23]. Experiments were performed with freshly thawed cells, which were seeded in 96-well MICROTEST tissue culture plates (Falcon) at ∼500 cells/well and grown at 37°C. After 6 h, nocodazole, colchicine or compound A8 were added (1–1000 nmol/l). The cells were incubated for 3 d at 37°C and then assayed for viability (CellTiter 96 Assay, Promega).

Row | SMILES | Effect on binding of CLIP-170^488 to taxol-stabilized MTs [1] | Concentration inducing a mitotic delay (HeLa cells; HeLa released from G1/S) [µmol/L] | Concentration inducing cell death (HeLa cells; HeLa released from G1/S) [µmol/L] | Duration of metaphase arrest (HeLa cells; HeLa, compound concentrations of 5 µmol/l and above, followed by cell death) [h] | Effect on mitosis at 500 nmol/l (HeLa cells; HeLa released from G1/S, 500 nmol/l) | pIC50 [2]
1 | Cc1c(C(=O)OCC2CCCO2)[nH]c2c1C(=O)CC(c1ccco1)C2 (stereo not drawn) [compound B, 6-furan-2-yl-3-methyl-4-oxo-4,5,6,7,-tetrahydro-1H-indole-2-carboxylic acid tetrahydro-furan-2-ylmethyl ester] | prevented | 1 to 10 | 5 to 10 | ~15 | – | –
2 | CCSCCOC(=O)c1[nH]c2c(c1C)C(=O)C[C@@H](c1ccco1)C2 [A8] | – | – | – | – | robust mitotic block, followed by cell death | 7.60
